The source of these data is ChEMBL document CHEMBL1126491, “Dual antagonists of platelet activating factor and histamine. 2. pyridine ring substitution of N-acetyl-4-(8-chloro-5,6-dihydro-11H-benzo[5,6]cyclohepta[1,2-b]pyridin-11-ylidene)piperidines” (Bioorg Med Chem Lett, 1993).

The target of assay [1] is Histamine H1 receptor (Rattus norvegicus, UniProt P31390). In words: Ability to displace [3H]-pyrilamine from H1 receptor in rat brain membrane. It is filed as cell membranes.
The species named for assay [2] is Homo sapiens. As to the kind of experiment: Concentration for inhibition of PAF-induced platelet aggregation in human platelet-rich plasma. It is filed as functional.

Histamine H1 receptor, sequence (P31390 whole entry): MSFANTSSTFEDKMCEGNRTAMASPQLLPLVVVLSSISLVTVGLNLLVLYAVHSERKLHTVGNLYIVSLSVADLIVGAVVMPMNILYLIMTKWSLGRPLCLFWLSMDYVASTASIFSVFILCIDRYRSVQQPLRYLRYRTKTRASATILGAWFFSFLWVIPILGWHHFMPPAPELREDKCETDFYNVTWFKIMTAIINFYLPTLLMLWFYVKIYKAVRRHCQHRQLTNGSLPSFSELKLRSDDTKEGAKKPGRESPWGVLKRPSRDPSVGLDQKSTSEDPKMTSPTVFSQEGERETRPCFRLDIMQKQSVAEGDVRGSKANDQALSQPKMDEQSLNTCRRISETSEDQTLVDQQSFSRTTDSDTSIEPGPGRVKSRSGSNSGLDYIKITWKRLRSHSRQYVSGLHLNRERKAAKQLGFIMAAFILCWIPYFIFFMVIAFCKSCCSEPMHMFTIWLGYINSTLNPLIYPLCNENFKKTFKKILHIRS

Usually Ki stands for a measure of affinity in units of concentration, obtained from inhibition or displacement. Read a low Ki as a stronger hold on the target. The IC50 is the concentration that inhibits the measured activity by half. Take `CC(=O)N1CCC(=C2c3ccc(Cl)cc3CCc3cc(-c4ccccc4)cnc32)CC1`: the affinity in assay [1], expressed as Ki, was 230 nM. The same compound showed a half-inhibitory concentration (IC50) in assay [2] of 1080 nM.
On the same counts, the results for `CC(=O)N1CCC(=C2c3ccc(Cl)cc3CCc3ccc(C)nc32)CC1` are 1030 nM and 280 nM.
For `COc1ccc2c(n1)C(=C1CCN(C(C)=O)CC1)c1ccc(Cl)cc1CC2` the same measures were over 10000 nM and 6000 nM.
On the same counts, the results for `CC(=O)N1CCC(=C2c3ccc(Cl)cc3CCc3c(Cl)ccnc32)CC1` are 240 nM and 8000 nM.
Take `CC(=O)N1CCC(=C2c3ccc(Cl)cc3CCc3cc(Br)cnc32)CC1`: the inhibition constant Ki in assay [1] was 10 nM. Besides, the IC50 in assay [2] was 2290 nM.
For `COc1ccnc2c1CCc1cc(Cl)ccc1C2=C1CCN(C(C)=O)CC1` the same measures were over 10000 nM and 3040 nM.
In assay [1], `COc1cnc2c(c1)CCc1cc(Cl)ccc1C2=C1CCN(C(C)=O)CC1` displayed an inhibitory constant (Ki) of 430 nM. Moreover, 1480 nM corresponded to half-maximal inhibition in assay [2] (IC50).
For `CSc1cnc2c(c1)CCc1cc(Cl)ccc1C2=C1CCN(C(C)=O)CC1` the same measures were 210 nM and 600 nM.
On the same counts, the results for `CC(=O)N1CCC(=C2c3ccc(Cl)cc3CCc3cc(Cl)cnc32)CC1` are 100 nM and 940 nM.
On the same counts, the results for `CC(=O)N1CCC(=C2c3ccc(Cl)cc3CCc3c(O)ccnc32)CC1` are over 10000 nM and at least 50000 nM.
Regarding `CC(=O)N1CCC(=C2c3ccc(Cl)cc3CCc3cc(C(C)O)cnc32)CC1` (centres undefined), the Ki in assay [1] was 40 nM. Also, in assay [2], inhibition was half-maximal at 1070 nM (IC50).
Turning to `CC(=O)c1cnc2c(c1)CCc1cc(Cl)ccc1C2=C1CCN(C(C)=O)CC1`, the Ki in assay [1] worked out at 1160 nM. This compound also displayed an IC50 in assay [2] of 2080 nM.
For `CC(=O)N1CCC(=C2c3ccc(Cl)cc3CCc3cc(C=O)cnc32)CC1` the same measures were 700 nM and 2730 nM.
On the same counts, the results for `CC(=O)N1CCC(=C2c3ccc(Cl)cc3CCc3cc(CO)cnc32)CC1` are 20 nM and 690 nM.
On the same counts, the results for `CC(=O)N1CCC(=C2c3ccc(Cl)cc3CCc3ccc(Cl)nc32)CC1` are 1360 nM and 610 nM.
Regarding `CC(=O)N1CCC(=C2c3ccc(Cl)cc3CCc3ccc(O)nc32)CC1`, the inhibitory constant (Ki) in assay [1] is over 10000 nM. The same compound yielded a half-maximal inhibitory concentration (IC50) in assay [2] of 6750 nM.
For `CC(=O)N1CCC(=C2c3ccc(Cl)cc3CCc3c(C)ccnc32)CC1` the same measures were 230 nM and 6000 nM.
On the same counts, the results for `CC(=O)N1CCC(=C2c3ccc(Cl)cc3CCc3cc(C)cnc32)CC1` are 70 nM and 340 nM.
On the same counts, the results for `CC(=O)N1CCC(=C2c3ccc(Cl)cc3CCc3cc(O)cnc32)CC1` are 1580 nM and 4130 nM.
As for `CC(=O)N1CCC(=C2c3ccc(Cl)cc3CCc3cccnc32)CC1` [SCH-37370], the IC50 in assay [2] came to 610 nM.
